{"source": "patent US11931424B2", "about": "“Combination MCL-1 inhibitors with anti-body drug conjugates” (Gilead Sciences, Inc., priority 2021, dated 2024)", "test_system": "panel of breast cancer cell lines", "experiment": "Compound A with targeted agents and chemotherapies, 72-hour in vitro proliferation assays", "assay_type": "cell-based", "conditions": "compound A × partner, 72-hour proliferation"}
{"smiles": "N.N.O=C([O-])C1(C(=O)[O-])CCC1.[Pt+2]", "note": "[Carboplatin]", "values": [{"measurement": "Best CI", "setting": "AU565 cell line", "result": 1.10}, {"measurement": "Bliss Volume", "setting": "AU565 cell line", "result": 6.93}, {"measurement": "HSA volume", "setting": "AU565 cell line", "result": "−0.68"}, {"measurement": "Loewe Volume", "setting": "AU565 cell line", "result": "−0.04"}, {"measurement": "Synergy Score", "setting": "AU565 cell line", "result": 3.68}, {"measurement": "Best CI", "setting": "BT-20 cell line", "result": 0.66}, {"measurement": "Bliss Volume", "setting": "BT-20 cell line", "result": 7.81}, {"measurement": "HSA volume", "setting": "BT-20 cell line", "result": 1.55}, {"measurement": "Loewe Volume", "setting": "BT-20 cell line", "result": "−0.31"}, {"measurement": "Synergy Score", "setting": "BT-20 cell line", "result": 5.46}, {"measurement": "Best CI", "setting": "BT-474 cell line", "result": 1.30}, {"measurement": "Bliss Volume", "setting": "BT-474 cell line", "result": "−3.87"}, {"measurement": "HSA volume", "setting": "BT-474 cell line", "result": "−5.02"}, {"measurement": "Loewe Volume", "setting": "BT-474 cell line", "result": "−4.61"}, {"measurement": "Synergy Score", "setting": "BT-474 cell line", "result": 2.18}, {"measurement": "Best CI", "setting": "BT-549 cell line", "result": 1.30}, {"measurement": "Bliss Volume", "setting": "BT-549 cell line", "result": 6.55}, {"measurement": "HSA volume", "setting": "BT-549 cell line", "result": 4.24}, {"measurement": "Loewe Volume", "setting": "BT-549 cell line", "result": 4.88}, {"measurement": "Synergy Score", "setting": "BT-549 cell line", "result": 5.26}, {"measurement": "Best CI", "setting": "CAL-51 cell line", "result": 0.89}, {"measurement": "Bliss Volume", "setting": "CAL-51 cell line", "result": 2.81}, {"measurement": "HSA volume", "setting": "CAL-51 cell line", "result": 2.17}, {"measurement": "Loewe Volume", "setting": "CAL-51 cell line", "result": 2.97}, {"measurement": "Synergy Score", "setting": "CAL-51 cell line", "result": 5.53}, {"measurement": "Best CI", "setting": "CAL-85-1 cell line", "result": 1.11}, {"measurement": "Bliss Volume", "setting": "CAL-85-1 cell line", "result": 4.84}, {"measurement": "HSA volume", "setting": "CAL-85-1 cell line", "result": 3.68}, {"measurement": "Loewe Volume", "setting": "CAL-85-1 cell line", "result": 3.42}, {"measurement": "Synergy Score", "setting": "CAL-85-1 cell line", "result": 4.18}, {"measurement": "Best CI", "setting": "CAL-120 cell line", "result": 0.58}, {"measurement": "Bliss Volume", "setting": "CAL-120 cell line", "result": "−0.19"}, {"measurement": "HSA volume", "setting": "CAL-120 cell line", "result": "−1.52"}, {"measurement": "Loewe Volume", "setting": "CAL-120 cell line", "result": "−0.25"}, {"measurement": "Synergy Score", "setting": "CAL-120 cell line", "result": 0.49}, {"measurement": "Best CI", "setting": "CAL-148 cell line", "result": 0.27}, {"measurement": "Bliss Volume", "setting": "CAL-148 cell line", "result": 11.40}, {"measurement": "HSA volume", "setting": "CAL-148 cell line", "result": 12.06}, {"measurement": "Loewe Volume", "setting": "CAL-148 cell line", "result": 11.89}, {"measurement": "Synergy Score", "setting": "CAL-148 cell line", "result": 24.09}, {"measurement": "Best CI", "setting": "CAMA-1 cell line", "result": 0.46}, {"measurement": "Bliss Volume", "setting": "CAMA-1 cell line", "result": 9.50}, {"measurement": "HSA volume", "setting": "CAMA-1 cell line", "result": 6.02}, {"measurement": "Loewe Volume", "setting": "CAMA-1 cell line", "result": 6.21}, {"measurement": "Synergy Score", "setting": "CAMA-1 cell line", "result": 12.48}, {"measurement": "Best CI", "setting": "DU-4475 cell line", "result": 0.76}, {"measurement": "Bliss Volume", "setting": "DU-4475 cell line", "result": 10.04}, {"measurement": "HSA volume", "setting": "DU-4475 cell line", "result": 7.26}, {"measurement": "Loewe Volume", "setting": "DU-4475 cell line", "result": 6.59}, {"measurement": "Synergy Score", "setting": "DU-4475 cell line", "result": 8.88}, {"measurement": "Best CI", "setting": "EVSA-T cell line", "result": 0.84}, {"measurement": "Bliss Volume", "setting": "EVSA-T cell line", "result": 9.55}, {"measurement": "HSA volume", "setting": "EVSA-T cell line", "result": "−0.13"}, {"measurement": "Loewe Volume", "setting": "EVSA-T cell line", "result": "−0.33"}, {"measurement": "Synergy Score", "setting": "EVSA-T cell line", "result": 4.72}, {"measurement": "Best CI", "setting": "HCC38", "result": 0.63}, {"measurement": "Best CI Level", "setting": "HCC38", "result": 130}, {"measurement": "Bliss Volume", "setting": "HCC38", "result": 5.43}, {"measurement": "HSA volume", "setting": "HCC38", "result": 5.68}, {"measurement": "Loewe Volume", "setting": "HCC38", "result": 3.81}, {"measurement": "Synergy Score", "setting": "HCC38", "result": 9.07}, {"measurement": "Best CI", "setting": "HCC70", "result": 0.31}, {"measurement": "Best CI Level", "setting": "HCC70", "result": 60}, {"measurement": "Bliss Volume", "setting": "HCC70", "result": 12.67}, {"measurement": "HSA volume", "setting": "HCC70", "result": 3.84}, {"measurement": "Loewe Volume", "setting": "HCC70", "result": 3.02}, {"measurement": "Synergy Score", "setting": "HCC70", "result": 7.72}, {"measurement": "Best CI", "setting": "HCC1143 cell line", "result": 0.82}, {"measurement": "Bliss Volume", "setting": "HCC1143 cell line", "result": "−4.47"}, {"measurement": "HSA volume", "setting": "HCC1143 cell line", "result": "−2.24"}, {"measurement": "Loewe Volume", "setting": "HCC1143 cell line", "result": "−2.60"}, {"measurement": "Synergy Score", "setting": "HCC1143 cell line", "result": 3.59}, {"measurement": "Best CI", "setting": "HCC1569", "result": 0.43}, {"measurement": "Best CI Level", "setting": "HCC1569", "result": 30}, {"measurement": "Bliss Volume", "setting": "HCC1569", "result": 4.84}, {"measurement": "HSA volume", "setting": "HCC1569", "result": 2.05}, {"measurement": "Loewe Volume", "setting": "HCC1569", "result": 2.91}, {"measurement": "Synergy Score", "setting": "HCC1569", "result": 2.85}, {"measurement": "Best CI", "setting": "HCC1806", "result": 0.33}, {"measurement": "Best CI Level", "setting": "HCC1806", "result": 80}, {"measurement": "Bliss Volume", "setting": "HCC1806", "result": 11.43}, {"measurement": "HSA volume", "setting": "HCC1806", "result": 4.44}, {"measurement": "Loewe Volume", "setting": "HCC1806", "result": 9.76}, {"measurement": "Synergy Score", "setting": "HCC1806", "result": 9.06}, {"measurement": "Best CI", "setting": "HCC1937", "result": 0.44}, {"measurement": "Best CI Level", "setting": "HCC1937", "result": 25}, {"measurement": "Bliss Volume", "setting": "HCC1937", "result": 5.97}, {"measurement": "HSA volume", "setting": "HCC1937", "result": 3.52}, {"measurement": "Loewe Volume", "setting": "HCC1937", "result": 4.56}, {"measurement": "Synergy Score", "setting": "HCC1937", "result": 4.59}, {"measurement": "Best CI", "setting": "HCC1954", "result": 1.07}, {"measurement": "Best CI Level", "setting": "HCC1954", "result": 125}, {"measurement": "Bliss Volume", "setting": "HCC1954", "result": 2.26}, {"measurement": "HSA volume", "setting": "HCC1954", "result": 2.07}, {"measurement": "Loewe Volume", "setting": "HCC1954", "result": 0.71}, {"measurement": "Synergy Score", "setting": "HCC1954", "result": 5.12}, {"measurement": "Best CI", "setting": "HCC2218", "result": 0.70}, {"measurement": "Best CI Level", "setting": "HCC2218", "result": 45}, {"measurement": "Bliss Volume", "setting": "HCC2218", "result": 2.59}]}
